Literature values, collected in patent publication US11590241B2, “Nanoparticle conjugated synthetic opioid prodrugs and methods of their uses” (VIRGINIA COMMONWEALTH UNIVERSITY, priority 2016, dated 2023).

Key:
MOR [1] = molecular target: T1, MOR (Homo sapiens, UniProt P35372); settings: data from Li et al. 2009
T1 construct: expressed in transfected cells; host or cells: CHO (Chinese hamster ovary) cells, membrane preparation

morphine-pelleted mice = settings: U.S. Pat. No. 8,980,908
MOR [2] = molecular target: T1, MOR; settings: read-out: Ki (nM) μ; [3H]naloxone; data from Li et al. 2009
mice = settings: parent compound, earlier data
[3] = extensive hepatic first-pass metabolism

T1 sequence (P35372 whole entry): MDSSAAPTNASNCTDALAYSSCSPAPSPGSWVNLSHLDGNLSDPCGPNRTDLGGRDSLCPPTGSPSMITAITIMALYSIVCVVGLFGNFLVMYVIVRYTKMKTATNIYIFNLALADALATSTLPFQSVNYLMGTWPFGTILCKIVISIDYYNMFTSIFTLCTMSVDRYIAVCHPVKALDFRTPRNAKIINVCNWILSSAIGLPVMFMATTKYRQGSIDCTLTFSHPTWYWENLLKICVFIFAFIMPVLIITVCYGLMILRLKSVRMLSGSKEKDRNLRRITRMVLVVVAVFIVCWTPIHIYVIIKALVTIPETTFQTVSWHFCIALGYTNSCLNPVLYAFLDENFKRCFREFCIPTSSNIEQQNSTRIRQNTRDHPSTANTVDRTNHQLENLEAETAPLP

For O=C(Cc1ccncc1)N[C@@H]1CC[C@@]2(O)[C@H]3Cc4ccc(O)c5c4[C@@]2(CCN3CC2CC2)[C@H]1O5 [NAP, 17-cyclopropylmethyl-3,14 β-dihydroxy-4,5 α-epoxy-6 β-[(4-pyridyl)acetamido]morphinan], the “MOR [35S]GTPγS Binding % Emax of DAMGO” value (MOR [1]) is given as 22.7 ± 0.8%, the EC50 (MOR [1]; read-out: MOR [35S]GTPγS Binding EC50) is given as 1.14 ± 0.38 nM and the intestinal motility (morphine-pelleted mice) is given as “increase intestinal motility”. The Ki (MOR [2]) was 0.37 ± 0.07 nM, the “AD50, blocking the antinociceptive effect of morphine” value (mice) was 4.98 mg/kg and the “agonist activity (antinociception)” value (mice) was “did not carry any significant agonist activity”.
For C=CCN1CC[C@]23c4c5ccc(O)c4O[C@H]2C(=O)CC[C@@]3(O)[C@H]1C5 [Naloxone], the oral bioavailability [3] is listed as ~2%.
